Measurements: ChEMBL document CHEMBL1156583, “Zwitterionic uracil derivatives as potent GnRH receptor antagonists with improved pharmaceutical properties” (Bioorg Med Chem Lett, 2008)
pIC50, pKi: −log10 of the molar value.

Key:
Cytochrome P450 3A4 = Cytochrome P450 3A4 (Homo sapiens, UniProt P08684); experiment: Inhibition of recombinant CYP3A4 by microtiter plate-based fluorimetric assay; type: ADME
[1] = biological target: T1, Gonadotropin-releasing hormone receptor (Homo sapiens, UniProt P30968); experiment: Displacement of [125I]tyr5,D-Leu6,NMeLeu7-GnRH from human cloned GnRH receptor expressed in RBL cells; type: cell-based
T1 sequence (P30968 whole entry): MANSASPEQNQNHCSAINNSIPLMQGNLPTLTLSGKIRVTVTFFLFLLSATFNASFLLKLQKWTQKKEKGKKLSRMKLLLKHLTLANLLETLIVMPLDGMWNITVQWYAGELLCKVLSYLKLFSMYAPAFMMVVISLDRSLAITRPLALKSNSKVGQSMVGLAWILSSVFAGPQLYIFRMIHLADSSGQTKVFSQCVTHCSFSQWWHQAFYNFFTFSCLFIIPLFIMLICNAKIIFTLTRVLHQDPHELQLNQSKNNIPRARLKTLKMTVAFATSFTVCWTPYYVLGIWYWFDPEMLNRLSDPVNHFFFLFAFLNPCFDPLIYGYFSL

[2] = biological target: T1, Gonadotropin-releasing hormone receptor; experiment: Displacement of [125I]Pro-N-Et-GnRH from human cloned GnRH receptor expressed in HEK cells; type: cell-based, HEK293
CYP3A4 = CYP3A4 (Homo sapiens, UniProt P08684); experiment: Inhibition of recombinant CYP3A4 at 200 uM by microtiter plate-based fluorimetric assay; type: ADME
[3] = Oral bioavailability in Sprague-Dawley rat at 10 mg/kg; type: ADME, organism-based; settings: in vivo
[4] = Half life in Sprague-Dawley rat at 2.5 mg/kg, iv; type: ADME, organism-based; set-up: dose 2.5 mg/kg, route intravenous; settings: in vivo
[5] = biological target: T1, Gonadotropin-releasing hormone receptor; experiment: Antagonist activity at human GnRH receptor expressed in RBL cells assessed as inhibition of GnRH-stimulated [3H]inositol phosphate hydrolysis by whole cell assay; type: functional, cell-based
[6] = Clearance in Sprague-Dawley rat at 2.5 mg/kg, iv; type: ADME, organism-based; set-up: dose 2.5 mg/kg, route intravenous; settings: in vivo
[7] = Permeability from apical to basolateral side of human Caco-2 cell membrane; type: ADME, cell-based

Cytochrome P450 3A4, sequence (P08684 whole entry): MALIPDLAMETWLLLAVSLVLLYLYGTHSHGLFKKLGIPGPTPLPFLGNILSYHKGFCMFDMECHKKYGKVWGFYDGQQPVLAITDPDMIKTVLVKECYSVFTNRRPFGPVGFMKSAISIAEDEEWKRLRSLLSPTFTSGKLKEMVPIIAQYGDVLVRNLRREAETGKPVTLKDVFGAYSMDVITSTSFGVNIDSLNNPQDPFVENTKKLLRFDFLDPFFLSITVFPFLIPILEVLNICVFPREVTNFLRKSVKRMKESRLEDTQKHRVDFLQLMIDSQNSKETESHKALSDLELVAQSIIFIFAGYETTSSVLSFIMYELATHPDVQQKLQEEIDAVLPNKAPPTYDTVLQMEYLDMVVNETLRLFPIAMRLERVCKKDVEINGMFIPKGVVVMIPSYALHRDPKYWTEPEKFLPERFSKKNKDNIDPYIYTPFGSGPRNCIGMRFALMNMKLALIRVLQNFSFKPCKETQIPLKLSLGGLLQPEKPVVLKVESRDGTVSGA
CYP3A4, sequence (P08684 whole entry): as above

Structure (SMILES)	pIC50 (Cytochrome P450 3A4)	pKi [1]	pKi [2]	further results
CN[C@@H](Cn1c(=O)c(-c2cccc(OCCCNCC(=O)O)c2F)c(C)n(Cc2c(F)cccc2C(F)(F)F)c1=O)c1ccccc1	4.48	6.81		
N[C@@H](Cn1c(=O)c(-c2cccc(OCCCCC(=O)O)c2F)cn(Cc2c(F)cccc2C(F)(F)F)c1=O)c1ccccc1	4.44		7.47	
Cc1c(-c2cccc(OCC(=O)O)c2F)c(=O)n(C[C@H](N)c2ccccc2)c(=O)n1Cc1c(F)cccc1C(F)(F)F		7.28		inhibition at 200 µM (CYP3A4): 16%
CN[C@@H](Cn1c(=O)c(-c2cccc(OCCCN(C)CC(=O)O)c2F)c(C)n(Cc2c(F)cccc2C(F)(F)F)c1=O)c1ccccc1		7.46		
CN[C@@H](Cn1c(=O)c(-c2cccc(OCCC(C)(C)CC(=O)O)c2F)c(C)n(Cc2c(F)cccc2C(F)(F)F)c1=O)c1ccccc1	4.66	7.54		
CN[C@@H](Cn1c(=O)c(-c2cccc(OCCCOCC(=O)O)c2F)c(C)n(Cc2c(F)cccc2C(F)(F)F)c1=O)c1ccccc1	4.66	7.42		
Cc1c(-c2cccc(OCCCCC(=O)O)c2)c(=O)n(C[C@H](N)c2ccccc2)c(=O)n1Cc1c(F)cccc1C(F)(F)F	4.66		8.39	bioavailability [3]: 1.1%; half-life [4]: 10 h; pIC50 [5]: 7.59; clearance [6]: 7.5 mL/min/kg; Papp A→B [7]: 0.1 ×10⁻⁶ cm/s
CN[C@@H](Cn1c(=O)c(-c2cccc(OCCCCC(=O)O)c2F)c(C)n(Cc2c(F)cccc2C(F)(F)F)c1=O)c1ccccc1	4.89		8.92	bioavailability [3]: 13%; half-life [4]: 5.1 h; clearance [6]: 50 mL/min/kg; Papp A→B [7]: 1.2 ×10⁻⁶ cm/s
Cc1c(-c2cccc(OCCCCC(=O)O)c2F)c(=O)n(C[C@@H](c2ccccc2)N(C)C)c(=O)n1Cc1c(F)cccc1C(F)(F)F	4.38		7.82	Papp A→B [7]: 17 ×10⁻⁶ cm/s
CN[C@@H](Cn1c(=O)c(-c2cccc(OCCN(C)CC(=O)O)c2F)c(C)n(Cc2c(F)cccc2C(F)(F)F)c1=O)c1ccccc1		7.01		
N[C@@H](Cn1c(=O)c(-c2cccc(OCCCCCC(=O)O)c2F)cn(Cc2c(F)cccc2C(F)(F)F)c1=O)c1ccccc1	4.60		7.48	

The next lines start with results.

pIC50 (Cytochrome P450 3A4)	pKi [1]	pKi [2]	Structure (SMILES)	further results
	9.00	8.92	Cc1c(-c2cccc(OCCCCC(=O)O)c2F)c(=O)n(C[C@H](N)c2ccccc2)c(=O)n1Cc1c(F)cccc1C(F)(F)F	bioavailability [3]: 6.6%; half-life [4]: 6.6 h; pIC50 [5]: 8.59; clearance [6]: 14 mL/min/kg; Papp A→B [7]: 0.1 ×10⁻⁶ cm/s
	8.96	8.68	Cc1c(-c2cccc(OCCCCCC(=O)O)c2)c(=O)n(C[C@H](N)c2ccccc2)c(=O)n1Cc1c(F)cccc1C(F)(F)F	bioavailability [3]: 4.8%; half-life [4]: 4.9 h; pIC50 [5]: 8.55; clearance [6]: 36 mL/min/kg
	8.12		Cc1c(-c2cccc(OCCCC(=O)O)c2)c(=O)n(C[C@H](N)c2ccccc2)c(=O)n1Cc1c(F)cccc1C(F)(F)F	pIC50 [5]: 7.64
	7.57		CN[C@@H](Cn1c(=O)c(-c2cccc(OCCNCC(=O)O)c2F)c(C)n(Cc2c(F)cccc2C(F)(F)F)c1=O)c1ccccc1	
	8.33		Cc1c(-c2cccc(OCCCC(=O)O)c2F)c(=O)n(C[C@H](N)c2ccccc2)c(=O)n1Cc1c(F)cccc1C(F)(F)F	inhibition at 200 µM (CYP3A4): 21%
	8.00		Cc1c(-c2cccc(OCCC(=O)O)c2F)c(=O)n(C[C@H](N)c2ccccc2)c(=O)n1Cc1c(F)cccc1C(F)(F)F	
5.09	8.92	8.89	Cc1c(-c2cccc(OCCCCCC(=O)O)c2F)c(=O)n(C[C@H](N)c2ccccc2)c(=O)n1Cc1c(F)cccc1C(F)(F)F	bioavailability [3]: 3.7%; half-life [4]: 2.9 h; pIC50 [5]: 9.22; clearance [6]: 21 mL/min/kg
5.00	8.03		CN[C@@H](Cn1c(=O)c(-c2cccc(OCCOCC(=O)O)c2F)c(C)n(Cc2c(F)cccc2C(F)(F)F)c1=O)c1ccccc1	
